Reference: US8476264B2, “N-(3-(2-amino-6,6-difluoro-4,4A,5,6,7,7A-hexahydro-cyclopenta[E][1,3]oxazin-4-yl)-phenylamides as BACE1 inhibitors” (Hoffmann-La Roche Inc., priority 2011, dated 2013)

Tests used:
in vivo effect = conditions: % of control @ 30 mg/kg p.o.
[1] = molecular target: T1, recombinant human cathepsin E (Homo sapiens, UniProt P14091); test: Cathepsin E fluorescent substrate kinetic assay; type: biochemical; conditions: pH 4.5, substrate MR121-[…]
T1 construct: purchased R&D Systems
T1 sequence (P14091 54-396): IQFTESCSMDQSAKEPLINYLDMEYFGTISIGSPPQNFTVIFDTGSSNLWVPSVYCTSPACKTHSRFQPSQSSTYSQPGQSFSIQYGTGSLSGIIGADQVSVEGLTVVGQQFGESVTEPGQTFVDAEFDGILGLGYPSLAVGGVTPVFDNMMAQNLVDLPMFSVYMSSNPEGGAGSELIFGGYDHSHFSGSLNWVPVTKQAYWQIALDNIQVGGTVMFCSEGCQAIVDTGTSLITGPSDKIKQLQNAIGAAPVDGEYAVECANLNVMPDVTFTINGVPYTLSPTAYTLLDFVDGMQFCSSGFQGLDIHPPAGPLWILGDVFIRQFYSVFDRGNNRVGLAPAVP
Source text: Cathepsin D and Cathepsin E Fluorescent Substrate Kinetic Assays
The MR121 fluorescence assays described below are based on the fact that MR121 forms a non-fluorescent ground state complex with tryptophan. In solution this formation occurs at millimolar concentrations of tryptophan. The mechanism can be used to design a generic biochemical assay for proteases. A substrate peptide is labeled at the N-terminus with tryptophan and at the C-terminus with the fluorophore MR121 (for cathepsin D the 10 amino acid peptide […]-MR121 was used; for cathepsin E, MR121-[…] was used). In absence of protease activity, the substrates remain intact and the MR121 fluorescence is reduced by the high local Trp-concentration. If the substrates are cleaved by the enzymes the MR121 fluorescence is recovered.
The fluorescent substrate cathepsin D and cathepsin E kinetic assays were performed at room temperature in 384-well microtiter plates (black with clear flat bottom, non binding surface plates from Corning) in a final volume of 51 μl. The test compounds were serially diluted in DMSO (15 concentrations, ⅓ dilution steps) and 1 μl of diluted compounds were mixed for 10 min with 40 μl of cathepsin D (from human liver, Calbiochem) diluted in assay buffer (100 mM sodium acetate, 0.05% BSA, pH 5.5; final concentration: 200 nM) or with 40 μl of recombinant human cathepsin E (R&D Systems) diluted in assay buffer (100 mM sodium acetate, 0.05% BSA, pH 4.5; final concentration: 0.01 nM). After addition of 10 μl of the cathepsin D substrate […]-MR121 diluted in cathepsin D assay buffer (final concentration: 300 nM) or […] cathepsin E substrate MR121-[…] diluted in cathepsin E assay buffer (final concentration: 300 nM), the plates were strongly shaken for 2 minutes. The enzymatic reaction was followed in a plate: vision reader (Perkin Elmer) (excitation wavelength: 630 nm; emission: 695 nm) for at least 30 minutes in a kinetic measurement detecting an increase of MR121 fluorescence during the reaction time. The slope in the linear range of the kinetic was calculated and the IC50 of the test compounds were determined using a four parameter equation for curve fitting.

hERG channel = molecular target: T2, hERG channel (Homo sapiens, UniProt Q12809); test: PatchXpress hERG inhibition assay; type: cell-based; conditions: @ 1 μM; CHO cells transfected with hERG, automated patch clamp
T2 construct: expressed in transfected cells; host or cells: CHO cells
Experimental: PatchXpress hERG Inhibition Assay
The detailed method to quantify hERG channel inhibition by the automated patch clamp system PatchXpress® 7000A (Molecular Devices, Sunnyvale, Calif.) has been described by Guo et al. (J of Pharmacol & Tox Methods, (2005) 52(1):123-35). In brief, Chinese hamster ovary (CHO) cells transfected with the human ether-a-go-go-related gene (hERG) was cultured in Ex-cell 302 media supplemented with 10% fetal bovine serum, 2 mM glutamine and 0.25 mg/ml geneticin and maintained in a CO2 incubator at 37° C. For patch clamp electrophysiology, the external buffer contained (in mM): 150 NaCl, 10 Hepes, 4 KCl, 1.2 CaCl2, 1 MgCl2, pH 7.4 adjusted with […] and the internal recording solution contained (in mM): 140 KCl, 6 EGTA, 5 Hepes, MgCl2, 5 ATP-Na2, pH 7.2 adjusted with KOH. Once the cell was loaded in the recording chamber and formed a giga ohm seal with the planar glass electrodes (Sealchip™), a whole-cell configuration was achieved by rupturing the cell membrane. The membrane potential was then clamped at −80 mV and the hERG channel activated by a 1-second depolarizing pulse delivered at 0.1 Hz, the hERG current was measured during the 500 ms-repolarizing pulse to −40 mV. After an acceptable hERG current recording was obtained, the cell was first exposed to 0.3% DMSO as the vehicle control, followed by the test article in three ascending, full-log interval concentrations and finally E-4031 at 1 μM (as the positive control) to block the hERG current completely. […] The inhibition of hERG current at each concentration was normalized to that recorded in the vehicle control, and fitted with Hill equation to calculate IC20 and/or IC50.

CYP3A4 = molecular target: T3, CYP3A4 (Homo sapiens, UniProt P08684); test: CYP inhibition assay, CYP3A4; type: in vitro ADME; conditions: human liver microsomes, midazolam 1' hydroxylase; read-out: CYP IC50 3A4
T3 construct: 0.2 mg/ml pooled human liver microsomes; from tissue; host or cells: pooled human liver microsomes
Experimental: Inhibition of cytochromes P450 (CYPs) 2C9, 2D6 and 3A4 was assessed using human liver microsomes and CYP-selective substrate metabolism reactions. 50 μl incubations were made up containing (finally) 0.2 mg/ml pooled human liver microsomes, 5 μM substrate (diclofenac for CYP2C9 [4′ hydroxylase], dextromethorphan for CYP2D6 [O-demethylase] or midazolam for CYP3A4 [1′ hydroxylase]), 0.25 μL DMSO containing test inhibitor and NADPH regenerating system. Test inhibitor concentrations of 50, 16.7, 5.6, 1.9, 0.6 and 0.2 μM were assessed in singlicate. Incubations were pre-warmed to 37° C. for 10 minutes before initiation by addition of NADPH regenerating system. Incubations were quenched after 5 minutes (20 minutes for dextromethorphan) by addition of 50 μl cold acetonitrile containing 20 ng/ml 4-OH-diclofenac-13C6, 20 ng/mL dextrorphan-D3 and 20 ng/mL 1-OH-midazolam-D4. Quenched incubates were stored at −20° C. for at least 1 hour before centrifugation (20,000×g, 20 minutes). Supernatants were removed and diluted 1:1 with water prior to analysis using a RapidFire sample injector system and API4000 mass spectrometer. Peak areas for substrate, metabolite and stable-labelled metabolite standard were determined using MS/MS. The peak area ratios between the metabolite generated by the enzymatic reaction and the internal standard were used in subsequent calculations. The percentage of (DMSO) control activity was calculated for each incubate and IC50 values estimated by non-linear regression. Sulfaphenazole, quinidine or ketoconazole were tested in each CYP2C9, CYP2D6 or CYP3A4 inhibition experiment, respectively, to ensure assay sensitivity and reproducibility. (Validated assays for human cytochrome P450 activities, R. L. Walsky and R. S. Obach, Drug Metabolism and Disposition 32: 647-660, 2004. and S. Fowler and H. Zhang, The AAPS Journal, Vol. 10, No. 2, 410-424, 2008.)

T2 sequence (Q12809 whole entry): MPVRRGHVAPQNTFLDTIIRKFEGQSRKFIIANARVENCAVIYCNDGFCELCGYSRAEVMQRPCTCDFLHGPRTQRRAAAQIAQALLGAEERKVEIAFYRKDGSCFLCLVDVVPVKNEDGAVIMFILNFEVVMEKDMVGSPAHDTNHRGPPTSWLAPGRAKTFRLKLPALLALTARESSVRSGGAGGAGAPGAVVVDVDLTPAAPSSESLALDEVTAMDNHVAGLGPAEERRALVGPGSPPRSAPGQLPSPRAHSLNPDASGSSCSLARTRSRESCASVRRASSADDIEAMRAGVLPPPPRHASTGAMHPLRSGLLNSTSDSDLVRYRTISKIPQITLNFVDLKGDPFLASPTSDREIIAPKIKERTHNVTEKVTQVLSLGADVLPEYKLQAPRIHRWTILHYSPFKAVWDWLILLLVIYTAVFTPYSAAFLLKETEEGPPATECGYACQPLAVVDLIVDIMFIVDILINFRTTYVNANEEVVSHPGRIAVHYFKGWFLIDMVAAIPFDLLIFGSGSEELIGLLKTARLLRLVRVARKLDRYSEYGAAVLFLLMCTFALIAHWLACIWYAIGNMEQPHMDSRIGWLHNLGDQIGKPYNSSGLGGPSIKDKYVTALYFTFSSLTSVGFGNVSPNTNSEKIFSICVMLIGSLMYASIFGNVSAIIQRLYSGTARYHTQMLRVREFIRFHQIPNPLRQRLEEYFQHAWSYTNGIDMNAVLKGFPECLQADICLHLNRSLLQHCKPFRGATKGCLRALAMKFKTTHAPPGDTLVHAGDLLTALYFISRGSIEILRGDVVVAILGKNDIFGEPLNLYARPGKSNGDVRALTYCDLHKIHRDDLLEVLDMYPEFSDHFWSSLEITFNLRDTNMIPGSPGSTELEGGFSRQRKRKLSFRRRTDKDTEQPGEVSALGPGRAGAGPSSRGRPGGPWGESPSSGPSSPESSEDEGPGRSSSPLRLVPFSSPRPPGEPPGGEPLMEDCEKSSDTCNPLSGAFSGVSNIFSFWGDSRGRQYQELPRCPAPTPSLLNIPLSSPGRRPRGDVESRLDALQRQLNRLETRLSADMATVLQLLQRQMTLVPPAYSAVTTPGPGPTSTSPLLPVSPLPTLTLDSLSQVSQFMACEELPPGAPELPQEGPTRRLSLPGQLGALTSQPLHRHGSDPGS
T3 sequence (P08684 whole entry): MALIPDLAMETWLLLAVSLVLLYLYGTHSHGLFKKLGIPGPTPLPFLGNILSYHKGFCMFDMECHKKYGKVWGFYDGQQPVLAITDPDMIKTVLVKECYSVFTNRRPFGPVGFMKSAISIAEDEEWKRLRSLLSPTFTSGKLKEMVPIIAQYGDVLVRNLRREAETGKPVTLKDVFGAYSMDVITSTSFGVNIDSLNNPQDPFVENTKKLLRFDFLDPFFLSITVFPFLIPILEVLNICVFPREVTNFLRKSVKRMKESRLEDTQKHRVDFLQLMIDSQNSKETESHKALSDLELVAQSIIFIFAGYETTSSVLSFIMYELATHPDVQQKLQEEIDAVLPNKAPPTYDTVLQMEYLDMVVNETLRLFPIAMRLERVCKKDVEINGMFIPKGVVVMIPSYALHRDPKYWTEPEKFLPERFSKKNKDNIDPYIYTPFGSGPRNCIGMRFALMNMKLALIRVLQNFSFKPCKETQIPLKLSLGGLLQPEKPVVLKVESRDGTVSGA

SMILES | in vivo effect (in vivo effect) | IC50 [1] [µM] | hERG inhibition (hERG channel) | IC50 (CYP3A4) [µM]
N#Cc1ccc(C(=O)Nc2ccc(F)c([C@@]3(C(F)F)N=C(N)O[C@@H]4CC(F)(F)C[C@@H]43)c2)nc1 [Example 36, 5-Cyano-pyridine-2-carboxylic acid [(S)-3-((1R,2R)-2-amino-4-difluoromethyl-6,6-difluoro-4,4a,5,6,7,7a-hexahydro-cyclopenta[e][1,3]oxazin-4-yl)-4-fluoro-phenyl]-amide] | A (less than 50% of control @ 30 mg/kg p.o.) | > 200 | B (less than 15% inhibition @ 1 μM) | > 10
NC1=N[C@](CF)(c2cc(NC(=O)c3cnc(C(F)F)cn3)ccc2F)[C@H]2CC(F)(F)C[C@H]2O1 [Example 24, 5-Difluoromethyl-pyrazine-2-carboxylic acid [(S)-3-((1R,2R)-2-amino-6,6-difluoro-4-fluoromethyl-4,4a,5,6,7,7a-hexahydro-cyclopenta[e][1,3]oxazin-4-yl)-4-fluoro-phenyl]-amide] | A (less than 50% of control @ 30 mg/kg p.o.) | > 200 | B (less than 15% inhibition @ 1 μM) | > 10
COc1cnc(C(=O)Nc2ccc(F)c([C@@]3(C(F)F)N=C(N)O[C@@H]4CC(F)(F)C[C@@H]43)c2)cn1 [Example 42, 5-Methoxy-pyrazine-2-carboxylic acid [(S)-3-((1R,2R)-2-amino-4-difluoromethyl-6,6-difluoro-4,4a,5,6,7,7a-hexahydro-cyclopenta[e][1,3]oxazin-4-yl)-4-fluoro-phenyl]-amide] | A (less than 50% of control @ 30 mg/kg p.o.) | > 200 | B (less than 15% inhibition @ 1 μM) | > 10
N#Cc1ccc(C(=O)Nc2ccc(F)c([C@@]3(CF)N=C(N)O[C@@H]4CC(F)(F)C[C@@H]43)c2)nc1 [Example 3, 5-Cyano-pyridine-2-carboxylic acid [(S)-3-((1R,2R)-2-amino-6,6-difluoro-4-fluoromethyl-4,4a,5,6,7,7a-hexahydro-cyclopenta[e][1,3]oxazin-4-yl)-4-fluoro-phenyl]-amide] | A (less than 50% of control @ 30 mg/kg p.o.) | > 200 | B (less than 15% inhibition @ 1 μM) | > 10
NC1=N[C@](CF)(c2cc(NC(=O)c3ccc(F)cn3)ccc2F)[C@H]2CC(F)(F)C[C@H]2O1 [Example 7, 5-Fluoro-pyridine-2-carboxylic acid [(S)-3-((1R,2R)-2-amino-6,6-difluoro-4-fluoromethyl-4,4a,5,6,7,7a-hexahydro-cyclopenta[e][1,3]oxazin-4-yl)-4-fluoro-phenyl]-amide] | A (less than 50% of control @ 30 mg/kg p.o.) | 149 | A (less than 20% inhibition @ 1 μM) | > 10
